# Where a name gives a salt, the structure may show the parent alone.
# Tested on: THP-1 cells
# Experiment: Human monocytic THP-1 cell differentiation assay for soluble proteins (THP-1 soluble protein assay)
# Assay type: cell-based
# Settings: LPS-stimulated THP-1 cells, soluble protein not given
# From the text: Mitogenic stimulation of THP-1 cells cause differentiation into macrophage like cells with concomitant secretion of tumor necrosis factor (TNF-α) and TNF receptor (TNF-R p75/80 and TNF-R p55160) and Interleukin-8 (IL-8), among other proteins. In addition, non-stimulated THP-1 cells shed both the p75/80 and the p55/60 receptors over time. The release of membrane bound TNF-α and possibly TNF-R p75/80 and TNF-R p55/60, but not IL-8, is mediated by an enzyme called TNF-α converting enzyme or TACE.
# THP-1 cells (from ATCC) are a human monocytic cell line which were obtained from the peripheral blood of a person with acute monocytic leukemia. They can be grown in culture and differentiated into macrophage like cells by stimulation with mitogens.
# Each vial of cells are cultured for about two weeks prior to being used for an assay and then are used for only 4 to 6 weeks to screen compounds.
# Cell exposure to DMSO was limited to 0.1% final concentration. […] Compounds can be evaluated for their effect on basal (non-stimulated) shedding of the receptors by replacing the LPS with […] of THP-1 media.
# Plates are placed into an incubator set at 5% CO2 and at 37° C. After 4 hours of incubation, […] of tissue culture supernatant (TCS) is removed for use in an TNF-α ELISA. Following 24 hours of incubation, […] of TCS is removed and used for analysis in TNF-R p75/80, TNF-R p55160 and IL-8 ELISAs.
# In addition, at the 24 hours timepoint, and the cells for each treatment group are collected by resuspension in 500 μl/well of THP-1 media and transferred into a FACS tube. […] The samples are run on a Becton Dickinson FaxCaliber FLOW cytometry machine and the amount of dye taken up by each cell is measured in the high red wavelength (FL3). Only cells with compromised membranes (dead or dying) can take up PI. The percent of live cells is calculated by the number of cells not stained with PI, divided by the total number of cells in the sample. The viability values calculated for the drug treated groups were compared to the viability value calculated for the vehicle treated mitogen stimulated group (“vehicle positive control”) to determine the “percent change from control”. This “percent change from control” value is an indicator of drug toxicity.
# The quantity of soluble TNF-α, TNF-R p75/80 and TNF-R p55160 and IL-8 in the TCS of the THP-1 cell cultures are obtained with commercially available ELISAs from R&D Systems, by extrapolation from a standard curve generated with kit standards. The number of cells that either take up or exclude PI are measured by the FLOW cytometry machine and visualized by histograms using commercially available Cytologic software for each treatment group including all controls.
# Biological variability in the magnitude of the response of THP-1 cell cultures requires that experiments be compared on the basis of percent change from “vehicle positive control” for each drug concentration. Percent change in each soluble protein evaluated from the “vehicle positive control” was calculated for each compound concentration with the following formula: [formula]
# For the soluble protein (TNF-α, p75/80, p55/60, IL-8) studies under stimulated conditions, the mean pg/ml of duplicate wells were determined and the results expressed as percent change from “vehicle positive control”. For the soluble protein (p75/80 and p55/60 receptors) studies under non-stimulated conditions, the mean pg/ml of duplicate wells were determined and the results expressed as percent change from “vehicle positive control” utilizing the following formula: [formula]
# IC50 values for each compound are calculated by non-linear regression analysis using customized software utilizing the JUMP statistical package.
# For the cell viability studies, the viabilities (PI exclusion) of pooled duplicate wells were determined and the results expressed as % change from “vehicle positive control”.
row,SMILES,inhibition at 3 µM
1,"CC#CCOc1ccc(S(=O)(=O)CC2(C(=O)NO)CCN(C(=O)C3(C)COC(C)(C)OC3)CC2)cc1 [Example 42, 4-({[4-(2-Butynyloxy)phenyl]sulfonyl}methyl)-N-hydroxy-1-[(2,2,5-trimethyl-1,3-dioxan-5-yl)carbonyl]-4-piperidinecarboxamide]",78%
2,"CC#CCOc1ccc(S(=O)(=O)CC2(C(=O)NO)CCN(C(=O)C(C)(CO)CO)CC2)cc1 [Example 43, 4-({[4-(2-Butynyloxy)phenyl]sulfonyl}methyl)-N-hydroxy-1-[3-hydroxy-2-(hydroxymethyl)-2-methylpropanoyl]-4-piperidinecarboxamide]",66%
3,CC#CCOc1ccc(S(=O)(=O)CC2(C(=O)NO)CCN(C(=N)N)CC2)cc1 [Example 44],49%
4,CC#CCOc1ccc(S(=O)(=O)CC2(C(=O)NO)CCN(CC#CCO)CC2)cc1 [Example 45],48%
5,"CC#CCOc1ccc(S(=O)(=O)C2(C(=O)NO)CCN(C(C)=O)CC2)cc1 [Example 64, 1-Acetyl-4-(4-but-2-ynyloxybenzenesulfonyl)piperidine-4-carboxylic acid hydroxamide]",30%
6,"CC#CCOc1ccc(S(=O)(=O)C2(C(=O)NO)CCN(C(=O)c3ccccc3)CC2)cc1 [Example 65, 1-Benzoyl-4-(4-but-2-ynyloxybenzenesulfonyl)piperidine-4-carboxylic acid hydroxamide]",3%
7,"CC#CCOc1ccc(S(=O)(=O)C2(C(=O)NO)CCN(C(=O)c3ccc(OC)cc3)CC2)cc1 [Example 66, 1-(4-Methoxybenzoyl)-4-(4-but-2-ynyloxybenzenesulfonyl)piperidine-4-carboxylic acid hydroxamide]",73%
8,"CC#CCOc1ccc(S(=O)(=O)C2(C(=O)NO)CCN(C(=O)N3CCCC3)CC2)cc1 [Example 67, 4-(4-But-2-ynyloxybenzenesulfonyl)-N-hydroxy-1-(pyrrolidine-1-carbonyl)-4-piperidinecarboxamide]",18%
9,"CC#CCOc1ccc(S(=O)(=O)C2(C(=O)NO)CCN(C(=O)OCC)CC2)cc1 [Example 68, Ethyl 4-(4-but-2-ynyloxybenzenesulfonyl)-4-[(hydroxyamino)-carbonyl]-1-piperidinecarboxylate]",10%
10,"CC#CCOc1ccc(S(=O)(=O)C2(C(=O)NO)CCN(S(=O)(=O)C(F)(F)F)CC2)cc1 [Example 69, 4-(4-But-2-ynyloxybenzenesulfonyl)-N-hydroxy-1-[(trifluoromethyl)-sulfonyl]-4-piperidinecarboxamide]",14%
11,"CC#CCOc1ccc(S(=O)(=O)C2(C(=O)NO)CCN(C(=O)c3cccnc3)CC2)cc1 [Example 70, 4-(4-But-2-ynyloxybenzenesulfonyl)-N-hydroxy-1-(3-pyridinylcarbonyl)-4-piperidinecarboxamide]",62%
12,"CC#CCOc1ccc(S(=O)(=O)C2(C(=O)NO)CCN(C(=O)c3cccs3)CC2)cc1 [Example 71, 4-(4-but-2-ynyloxybenzenesulfonyl)-N-hydroxy-1-(2-thienylcarbonyl)-4-piperidinecarboxamide]",14%
13,"CC#CCOc1ccc(S(=O)(=O)C2(C(=O)NO)CCN(S(=O)(=O)c3ccc(OC)cc3)CC2)cc1 [Example 72, 4-(4-but-2-ynyloxybenzenesulfonyl)-N-hydroxy-1-[(4-methoxyphenyl)-sulfonyl]-4-piperidinecarboxamide]",56%
14,"CC#CCOc1ccc(S(=O)(=O)C2(C(=O)NO)CCN(C(=O)C(C)(CO)CO)CC2)cc1 [Example 74, 4-(4-But-2-ynyloxybenzenesulfonyl)-N-hydroxy-1-[3-hydroxy-2-(hydroxymethyl)-2-methylpropanoyl]-4-piperidinecarboxamide]",39%
15,"CC#CCOc1ccc(S(=O)(=O)C2(C(=O)NO)CCN(C(=O)OC(C)(C)C)CC2)cc1 [Example 75, Tert-butyl 4-{[4-(2-butynyloxy)phenyl]sulfonyl}-4-[(hydroxyamino)carbonyl-]-1-piperidinecarboxalate]",-4%
16,"CC#CCOc1ccc(S(=O)(=O)C2(C(=O)NO)CCNCC2)cc1 [Example 76, 4-{[4-(2-butynyloxy)phenyl]sulfonyl}-N-hydroxy-4-piperidinecarboxamide hydrochloride]",26%
17,"CC#CCOc1ccc(S(=O)(=O)C2(C(=O)NO)CCN(Cc3ccc(C(=O)OC)cc3)CC2)cc1 [Example 77, hydrochloride]",52%
18,"CC#CCOc1ccc(S(=O)(=O)C2(C(=O)NO)CCN(Cc3ccc(C(=O)O)cc3)CC2)cc1 [Example 78, 4-({4-{[4-(2-butynyloxy)phenyl]sulfonyl}-4-[(hydroxyamino)-carbonyl]-1-piperidinyl}methyl)benzoic acid hydrochloride]",64%
19,"CC#CCOc1ccc(S(=O)(=O)C2(C(=O)NO)CCN(Cc3ccc(C(N)=O)cc3)CC2)cc1 [Example 79, 1-[4-(Aminocarbonyl)benzyl]-4-{[4-(2-butynyloxy)phenyl]sulfonyl}-N-hydroxy-4-piperidinecarboxamide hydrochloride]",83%
20,"CC#CCOc1ccc([S+]([O-])C2(C(=O)NO)CCN(C(=O)OC(C)(C)C)CC2)cc1 (stereo not shown) [Example 80, tert-butyl 4-{[4-(but-2-ynyloxy)phenyl]sulfinyl}-4-[(hydroxyamino)carbonyl]piperidine-1-carboxalate]",-7%
21,"CC#CCOc1ccc([S+]([O-])C2(C(=O)NO)CCNCC2)cc1 (stereo not shown) [Example 81, 4-(4-(But-2-ynyloxy-benzenesulfinyl)-piperidine-4-carboxylic acid hydroxamide hydrochloride]",25%
22,"CC#CCOc1ccc([S+]([O-])C2(C(=O)NO)CCN(Cc3ccc(Br)cc3)CC2)cc1 (stereo not shown) [Example 82, 1-(4-Bromo-benzyl)-4-(4-But-2-ynyloxy-benzenesulfinyl)-piperidine-4-carboxylic acid hydroxamide hydrochloride]",16%

# From patent US6753337B2, “Alkynyl containing hydroxamic acid compounds as matrix metalloproteinase/tace inhibitors” (Wyeth Holdings Corporation, priority 1999, dated 2004)
